{"source": "patent US20120053168A1", "about": "“FUSED BENZOAZEPINES AS NEURONAL NICOTINIC ACETYLCHOLINE RECEPTOR LIGANDS” (Targacept, Inc., priority 2009, published 2012)", "key": {"Rat α4β2 nAChR subtype": {"molecular_target": "T1, Rat α4β2 nAChR subtype (Rattus norvegicus, UniProt P09483+P12390)", "T1 construct": "from tissue; host or cells: rat cerebral cortex membranes (female Sprague-Dawley)", "T1 sequence (P09483 31-630)": "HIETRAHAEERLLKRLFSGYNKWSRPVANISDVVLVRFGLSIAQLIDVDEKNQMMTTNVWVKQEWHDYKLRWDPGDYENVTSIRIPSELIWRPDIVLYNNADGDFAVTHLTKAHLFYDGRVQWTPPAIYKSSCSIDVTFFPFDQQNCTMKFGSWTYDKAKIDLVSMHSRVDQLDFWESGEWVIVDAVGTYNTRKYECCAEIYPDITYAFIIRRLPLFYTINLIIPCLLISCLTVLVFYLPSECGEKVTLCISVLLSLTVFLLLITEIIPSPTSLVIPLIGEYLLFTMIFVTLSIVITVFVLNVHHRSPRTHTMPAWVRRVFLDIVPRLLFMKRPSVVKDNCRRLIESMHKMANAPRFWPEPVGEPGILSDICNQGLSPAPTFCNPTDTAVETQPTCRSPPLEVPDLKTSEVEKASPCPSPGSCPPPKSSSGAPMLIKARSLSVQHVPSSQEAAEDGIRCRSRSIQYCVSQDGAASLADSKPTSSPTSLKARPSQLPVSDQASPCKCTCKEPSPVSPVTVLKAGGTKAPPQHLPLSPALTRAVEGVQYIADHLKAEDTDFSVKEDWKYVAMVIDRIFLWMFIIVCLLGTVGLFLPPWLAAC", "T1 sequence (P12390 25-500)": "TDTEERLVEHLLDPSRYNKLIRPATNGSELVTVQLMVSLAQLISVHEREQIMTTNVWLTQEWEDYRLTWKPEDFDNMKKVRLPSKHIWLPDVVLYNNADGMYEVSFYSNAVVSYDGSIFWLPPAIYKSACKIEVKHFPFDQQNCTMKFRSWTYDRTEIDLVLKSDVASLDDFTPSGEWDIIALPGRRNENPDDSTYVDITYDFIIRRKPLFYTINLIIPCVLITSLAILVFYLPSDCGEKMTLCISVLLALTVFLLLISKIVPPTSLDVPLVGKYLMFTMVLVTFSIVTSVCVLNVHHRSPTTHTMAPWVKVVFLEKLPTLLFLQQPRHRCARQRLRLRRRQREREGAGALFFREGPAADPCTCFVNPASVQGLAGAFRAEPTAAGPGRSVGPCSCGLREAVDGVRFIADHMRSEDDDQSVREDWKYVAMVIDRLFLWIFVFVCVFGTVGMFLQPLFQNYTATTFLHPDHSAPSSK", "test": "[3H]nicotine radioligand binding, membranes from rat cortex", "protocol": "Preparation of membranes from rat cortex: Rats (female, Sprague-Dawley), weighing 150-250 g, were maintained on a 12 h light/dark cycle and were allowed free access to water and food supplied by PMI Nutrition International, Inc. Animals were anesthetized with 70% CO2, and then decapitated. Brains were removed and placed on an ice-cold platform. The cerebral cortex was removed and placed in 20 volumes (weight:volume) of ice-cold preparative buffer (137 mM NaCl, 10.7 mM KCl, 5.8 mM KH2PO4, 8 mM Na2HPO4, 20 mM HEPES (free acid), 5 mM iodoacetamide, 1.6 mM EDTA, pH 7.4); PMSF, dissolved in methanol to a final concentration of 100 μM, was added and the suspension was homogenized by Polytron. The homogenate was centrifuged at 18,000×g for 20 min at 4° C. and the resulting pellet was re-suspended in 20 volumes of ice-cold water. After 60 min incubation on ice, a new pellet was collected by centrifugation at 18,000×g for 20 min at 4° C. The final pellet was re-suspended in 10 volumes of buffer and stored at ˜20° C.\nOn the day of the assay, the frozen membranes were thawed and spun at 48,000×g for 20 min. The supernatant was decanted and discarded. The pellet was resuspended in Dulbecco's phosphate buffered saline (PBS, Life Technologies) pH 7.4 and homogenized with the Polytron for 6 seconds. Protein concentrations were determined using a Pierce BCA Protein Assay Kit, with bovine serum albumin as the standard (Pierce Chemical Company, Rockford, Ill.).\nAssay: Membrane preparations (approximately 50 μg for human and 200-300 μg protein for rat α4β2) were incubated in PBS (50 μL and 100 μL respectively) in the presence of competitor compound (0.01 nM to 100 μM) and 5 nM [^3H]nicotine for 2-3 hours on ice. Incubation was terminated by rapid filtration on a multi-manifold tissue harvester (Brandel, Gaithersburg, Md.) using GF/B filters presoaked in 0.33% polyethyleneimine (w/v) to reduce non-specific binding. Tissue was rinsed 3 times in PBS, pH 7.4. Scintillation fluid was added to filters containing the washed tissue and allowed to equilibrate. Filters were then counted to determine radioactivity bound to the membranes by liquid scintillation counting (2200CA Tri-Carb LSC, Packard Instruments, 50% efficiency or Wallac Trilux 1450 MicroBeta, 40% efficiency, Perkin Elmer).\nData were expressed as disintegrations per minute (DPMs). Within each assay, each point had 2-3 replicates. The replicates for each point were averaged and plotted against the log of the drug concentration. IC50, which is the concentration of the compound that produces 50% inhibition of binding, was determined by least squares non-linear regression. Ki values were calculated using the Cheng-Prussof equation (1973): […]\nwhere N is the concentration of [^3H]nicotine and Kd is the affinity of nicotine (3 nM, determined in a separate experiment)."}, "[1]": {"tested_on": "animals impaired with scopolamine", "test": "Radial Arm Maze (RAM) task, scopolamine-induced cognitive deficits", "format": "in vivo, rat", "conditions": "3 mg/kg (15.1 μmol/kg) p.o.", "protocol": "Working memory is a cognitive domain known to be impaired in schizophrenia; the Radial Arm Maze task is commonly used to assess potential cognitive benefit derived from the test compounds. Using this assay, Compound A (7,8,9,10-tetrahydro-6H-azepino[4,5-g]quinoxaline) attenuated cognitive deficits induced by scopolamine in an animal model of working memory. Working memory was assessed in a 3 trial radial arm maze (RAM) task. The RAM task was conducted using an automated eight-arm maze (Med Associates, Inc.) The maze was located on a circular table approximately 88 cm above the floor with overhead lighting in a dedicated testing room and large, high contrast geometric shapes on the wall. […] The central platform measured 30.5 cm in diameter with eight arms (9 cm W×45.7 cm L×16.8 cm H) radiating from it. […] Activity on the maze was monitored by tracking quantitative activity (generated by infra-red beam breaks) on the computer interface and monitor screen.\nFollowing the baseline assessment on day 1 and after re-attainment of test session criterion, animals were assessed for their sensitivity to chemically-induced cognitive impairment using the muscarinic antagonist scopolamine (0.2-0.4 mg/kg; s.c.). A dose of scopolamine was determined for each animal based on the minimum dose that produced significant and reliable cognitive impairment. […]"}}, "data": [{"smiles": "c1cnc2cc3c(cc2n1)CCNCC3", "note": "[Compound A, 7,8,9,10-tetrahydro-6H-azepino[4,5-g]quinoxaline]", "values": [{"measurement": "Ki", "setting": "Rat α4β2 nAChR subtype", "value": 17, "unit": "nM"}, {"measurement": "effect on scopolamine-induced cognitive deficits, RAM", "setting": "[1]", "value": "attenuated scopolamine-induced cognitive deficits"}]}]}
